Patent US8148391B2 (Cephalon, Inc., priority 2006, dated 2012)
Where two headings read alike, the source gives them in different places.

Key:
[1] = biological target: T1, c-Met (cytoplasmic domain) (Homo sapiens, UniProt P08581); experiment: c-Met Kinase Assay (same methods as for ALK, with modifications); type: biochemical
T1 construct: 10 ng/mL c-Met (cytoplasmic domain, Invitrogen Corporation #PV3143); purchased Invitrogen Corporation PV3143
Method in brief: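 Wells were coated with 10 μg/mL phospholipase C-γ substrate in TBS, and reactions were started with 10 ng/mL c-Met cytoplasmic domain and run at 37° C for 15 minutes. Phosphorylated product was detected with Eu-N1-labeled PT66 antibody. IC50 values came from sigmoidal variable-slope fits of percent inhibition versus log compound concentration.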

[2] = biological target: T2, baculovirus-expressed ALK (Homo sapiens, UniProt Q9UM73); experiment: ALK Kinase Assay (ELISA-type, time-resolved fluorescence); type: biochemical
T2 construct: host or cells: baculovirus expression system
Method in brief: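 Substrate coating: phospholipase C-γ, 10 μg/mL in TBS. Kinase step: 30 ng/ml ALK, 15 min, 37° C. Detection and analysis: Eu-N1 PT66 antibody, with IC50 fitted as a sigmoidal variable-slope dose-response curve.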

[3] = 1 μM ATP (Km level), 10 ng/mL c-Met, read-out: cMet Activity (c-Met kinase inhibition, IC50 class)
[4] = 1 μM ATP (Km level), 30 ng/ml ALK, 37° C., 15 minutes, read-out: ALK Activity (ALK kinase inhibition, IC50 class)
[5] = c-Met kinase inhibition, 1 μM ATP (Km level), read-out: cMet Activity
[6] = ALK kinase inhibition, 1 μM ATP (Km level), read-out: ALK Activity
[7] = 1 μM ATP (Km level), read-out: cMet Activity (c-Met Kinase Inhibition, IC50)
[8] = 1 μM ATP (Km level), read-out: ALK Activity (ALK Kinase Inhibition, IC50)
[9] = c-Met kinase inhibition, 1 μM ATP, read-out: cMet Activity
[10] = ALK kinase inhibition, 1 μM ATP, read-out: ALK Activity

T1 sequence (P08581 956-1390 limits assumed): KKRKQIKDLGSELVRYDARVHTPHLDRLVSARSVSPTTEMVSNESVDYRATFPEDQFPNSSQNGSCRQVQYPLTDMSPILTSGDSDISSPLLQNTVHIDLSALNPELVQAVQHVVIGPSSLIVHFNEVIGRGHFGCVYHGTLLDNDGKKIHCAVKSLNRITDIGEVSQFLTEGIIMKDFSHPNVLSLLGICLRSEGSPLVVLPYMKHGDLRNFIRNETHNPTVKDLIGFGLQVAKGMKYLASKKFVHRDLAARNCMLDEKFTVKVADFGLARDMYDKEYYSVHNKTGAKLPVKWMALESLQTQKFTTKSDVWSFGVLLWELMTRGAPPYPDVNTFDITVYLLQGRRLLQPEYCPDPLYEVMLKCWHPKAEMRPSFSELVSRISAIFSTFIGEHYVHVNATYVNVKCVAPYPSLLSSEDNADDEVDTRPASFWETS
T2 sequence (Q9UM73 19-1620): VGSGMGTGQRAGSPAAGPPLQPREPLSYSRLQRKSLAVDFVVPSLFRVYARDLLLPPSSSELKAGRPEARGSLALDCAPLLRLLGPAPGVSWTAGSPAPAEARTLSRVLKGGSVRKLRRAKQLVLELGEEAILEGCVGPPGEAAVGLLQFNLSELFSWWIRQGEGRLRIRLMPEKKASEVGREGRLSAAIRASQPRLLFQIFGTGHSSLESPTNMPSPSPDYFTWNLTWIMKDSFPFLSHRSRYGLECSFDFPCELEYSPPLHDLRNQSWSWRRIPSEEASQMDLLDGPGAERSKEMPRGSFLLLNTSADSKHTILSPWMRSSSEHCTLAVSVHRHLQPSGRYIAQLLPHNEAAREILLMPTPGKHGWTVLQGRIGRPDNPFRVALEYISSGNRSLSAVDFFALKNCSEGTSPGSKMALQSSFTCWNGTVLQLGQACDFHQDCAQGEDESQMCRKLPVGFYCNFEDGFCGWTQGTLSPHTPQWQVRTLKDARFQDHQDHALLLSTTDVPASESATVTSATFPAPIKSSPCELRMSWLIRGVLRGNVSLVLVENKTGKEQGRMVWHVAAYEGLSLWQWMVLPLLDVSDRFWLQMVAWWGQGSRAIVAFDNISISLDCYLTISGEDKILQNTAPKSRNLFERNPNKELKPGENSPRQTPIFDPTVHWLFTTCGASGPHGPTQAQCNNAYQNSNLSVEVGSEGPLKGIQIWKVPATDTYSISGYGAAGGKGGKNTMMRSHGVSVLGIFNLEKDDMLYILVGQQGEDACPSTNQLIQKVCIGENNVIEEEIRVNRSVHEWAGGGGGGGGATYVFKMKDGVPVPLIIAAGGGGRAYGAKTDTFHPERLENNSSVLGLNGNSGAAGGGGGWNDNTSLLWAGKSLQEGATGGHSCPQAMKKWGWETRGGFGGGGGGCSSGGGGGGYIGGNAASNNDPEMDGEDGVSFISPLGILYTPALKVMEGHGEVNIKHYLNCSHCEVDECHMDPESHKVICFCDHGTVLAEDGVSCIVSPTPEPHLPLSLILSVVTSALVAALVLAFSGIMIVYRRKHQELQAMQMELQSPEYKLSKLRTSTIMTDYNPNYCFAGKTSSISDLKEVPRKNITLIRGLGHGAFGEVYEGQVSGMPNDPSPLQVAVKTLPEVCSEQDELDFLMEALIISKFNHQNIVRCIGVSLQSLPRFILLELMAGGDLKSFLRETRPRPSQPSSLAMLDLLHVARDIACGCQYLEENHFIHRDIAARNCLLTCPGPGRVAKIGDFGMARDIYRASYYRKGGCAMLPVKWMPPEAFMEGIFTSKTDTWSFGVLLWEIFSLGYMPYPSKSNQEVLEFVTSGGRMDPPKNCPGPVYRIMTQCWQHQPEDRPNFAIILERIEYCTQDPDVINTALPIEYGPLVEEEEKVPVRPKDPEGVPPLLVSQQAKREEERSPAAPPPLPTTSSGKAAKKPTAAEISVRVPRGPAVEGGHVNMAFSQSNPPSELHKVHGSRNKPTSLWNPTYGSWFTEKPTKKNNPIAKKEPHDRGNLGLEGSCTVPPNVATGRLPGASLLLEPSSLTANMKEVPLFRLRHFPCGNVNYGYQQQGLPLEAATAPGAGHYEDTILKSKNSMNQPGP

CN1C(=O)CCCc2cc(Nc3ncc(Cl)c(Nc4ccc5[nH]c(C(F)(F)F)nc5c4)n3)ccc21 [Example 1016, 7-[5-Chloro-4-(2-trifluoromethyl-1H-benzoimidazol-5-ylamino)-pyrimidin-2-ylamino]-1-methyl-1,3,4,5-tetrahydro-benzo[b]azepin-2-one]
IC50 [1, 3]: 1000 to 10000 nM
IC50 [2, 4]: 100 to 1000 nM

CCN1C(=O)CCCc2c1ccc(Nc1ncc(Cl)c(N[C@@H]3CCC[C@H]3NS(C)(=O)=O)n1)c2OC (relative stereo) [Example 374, N-{trans-2-[5-Chloro-2-(1-ethyl-6-methoxy-2-oxo-2,3,4,5-tetrahydro-1H-benzo[b]azepin-7-ylamino)-pyrimidin-4-ylamino]-cyclopentyl}-methanesulfonamide]
IC50 [1, 5]: > 10000 nM
IC50 [2, 6]: 100 to 1000 nM

CO[C@@H](CN1CCc2ccc(Nc3ncc(Cl)c(N[C@@H]4CCCC[C@H]4NS(C)(=O)=O)n3)cc2CC1)C(F)(F)F [Example 336, N-((1R,2R)-2-{5-Chloro-2-[3-((S)-3,3,3-trifluoro-2-methoxy-propyl)-2,3,4,5-tetrahydro-1H-benzo[d]azepin-7-ylamino]-pyrimidin-4-ylamino}-cyclohexyl)-methanesulfonamide]
IC50 [1, 5]: 100 to 1000 nM
IC50 [2, 6]: < 100 nM

Cc1ccnc(-c2ccccc2Nc2nc(Nc3ccc4c(c3)CCCC(=O)N4C)ncc2Cl)c1 [Example 1002, 7-{5-Chloro-4-[2-(4-methyl-pyridin-2-yl)-phenylamino]-pyrimidin-2-ylamino}-1-methyl-1,3,4,5-tetrahydro-benzo[b]azepin-2-one]
IC50 [1, 7]: 100 to 1000 nM
IC50 [2, 8]: 100 to 1000 nM

CNC(=O)c1cc(N(C)C)ccc1Nc1nc(Nc2ccc3c(c2)CCN(CCOC)CC3)ncc1Cl [Example 1413, 2-{5-Chloro-2-[3-(2-methoxy-ethyl)-2,3,4,5-tetrahydro-1H-benzo[d]azepin-7-ylamino]-pyrimidin-4-ylamino}-5-dimethylamino-N-methyl-benzamide]
IC50 [1, 3]: 100 to 1000 nM
IC50 [2, 4]: < 100 nM

CNC(=O)c1noc(C)c1Nc1nc(Nc2ccc3c(c2)CCOC(=O)N3C)ncc1Cl [Example 1775, 4-[5-Chloro-2-(5-methyl-6-oxo-5,6,8,9-tetrahydro-7-oxa-5-aza-benzocyclohepten-2-ylamino)-pyrimidin-4-ylamino]-5-methyl-isoxazole-3-carboxylic acid methyl amide]
IC50 [1, 9]: 1000 to 10000 nM
IC50 [2, 10]: > 10000 nM

COc1cc2c(cc1Nc1ncc(Cl)c(N[C@H]3[C@@H](C(N)=O)[C@@H]4C=C[C@H]3C4)n1)CCC(NCC(F)F)CC2 (single isomer, unassigned) [Example 1054]
IC50 [1, 3]: > 10000 nM
IC50 [2, 4]: < 100 nM

C#CCNC(=O)c1cccc(F)c1Nc1nc(Nc2ccc3c(c2)OCCCN3C(=O)OC)ncc1Cl [Example 1430, 3-[5-Chloro-4-(2-fluoro-6-prop-2-ynylcarbamoyl-phenylamino)-pyrimidin-2-ylamino]-7,8-dihydro-6H-5-oxa-9-aza-benzocycloheptene-9-carboxylic acid methyl ester]
IC50 [1, 3]: < 100 nM
IC50 [2, 4]: 100 to 1000 nM

CCN1CCc2ccc(Nc3ncc(Cl)c(NC(C)CNS(C)(=O)=O)n3)cc2CC1 (stereo not drawn) [Example 302, N-{2-[5-Chloro-2-(3-ethyl-2,3,4,5-tetrahydro-1H-benzo[d]azepin-7-ylamino)-pyrimidin-4-ylamino]-propyl}-methanesulfonamide]
IC50 [1, 5]: 1000 to 10000 nM
IC50 [2, 6]: < 100 nM

CCN1C(=O)CCCc2cc(Nc3ncc(Cl)c(Nc4ccc(N5CCOCC5)cc4OC)n3)c(OC)cc21 [Example 135, 7-[5-Chloro-4-(2-methoxy-4-morpholin-4-yl-phenylamino)-pyrimidin-2-ylamino]-1-ethyl-8-methoxy-1,3,4,5-tetrahydro-benzo[b]azepin-2-one]
IC50 [1, 5]: > 10000 nM
IC50 [2, 6]: < 100 nM

CNC(=O)c1ccccc1Nc1nc(Nc2ccc3c(c2)C2CNCC3O2)ncc1Cl (stereo not drawn) [Example 65, 2-[5-Chloro-2-(12-oxa-10-aza-tricyclo[6.3.1.0*2,7*]dodeca-2(7),3,5-trien-4-ylamino)-pyrimidin-4-ylamino]-N-methyl-benzamide]
IC50 [1, 5]: 100 to 1000 nM
IC50 [2, 6]: 100 to 1000 nM

CN1C(=O)OCCc2cc(Nc3ncc(Cl)c(Nc4cccc5[nH]ncc45)n3)ccc21 [Example 1769, 2-[5-Chloro-4-(1H-indazol-4-ylamino)-pyrimidin-2-ylamino]-5-methyl-8,9-dihydro-5H-7-oxa-5-aza-benzocyclohepten-6-one]
IC50 [1, 9]: 100 to 1000 nM
IC50 [2, 10]: 100 to 1000 nM

Cc1cccc(C(N)=O)c1Nc1nc(Nc2ccc3c(c2)NC(=O)CCC3(C)C)ncc1Cl [Example 1577, 2-[5-Chloro-2-(5,5-dimethyl-2-oxo-2,3,4,5-tetrahydro-1H-benzo[b]azepin-8-ylamino)-pyrimidin-4-ylamino]-3-methyl-benzamide]
IC50 [1, 9]: 100 to 1000 nM
IC50 [2, 10]: 1000 to 10000 nM

COCCN1CCc2ccc(OC)c(Nc3ncc(Cl)c(N[C@H]4[C@@H](C(N)=O)[C@@H]5C=C[C@H]4C5)n3)c2CC1 (relative stereo) [Example 245, (2-exo,3-exo)-3-{5-Chloro-2-[7-methoxy-3-(2-methoxy-ethyl)-2,3,4,5-tetrahydro-1H-benzo[d]azepin-6-ylamino]-pyrimidin-4-ylamino}-bicyclo[2.2.1]hept-5-ene-2-carboxylic acid amide]
IC50 [1, 5]: > 10000 nM
IC50 [2, 6]: 1000 to 10000 nM

C#CCN1CC2OC(C1)c1cc(Nc3ncc(Cl)c(Nc4ccccc4C(=O)NC)n3)ccc12 (stereo not drawn) [Example 63, 2-[5-Chloro-2-(10-prop-2-ynyl-12-oxa-10-aza-tricyclo[6.3.1.0*2,7*]dodeca-2,4,6-trien-4-ylamino)-pyrimidin-4-ylamino]-N-methyl-benzamide]
IC50 [1, 5]: < 100 nM
IC50 [2, 6]: 100 to 1000 nM

CNC(=O)c1cccc(C)c1Nc1nc(Nc2ccc3c(c2)CCC(=O)NC3(C)C)ncc1Cl [Example 1830, 2-(5-Chloro-2-(1,1-dimethyl-3-oxo-2,3,4,5-tetrahydro-1H-benzo[c]azepin-7-ylamino)pyrimidin-4-ylamino)-N,3-dimethylbenzamide]
IC50 [1, 9]: < 100 nM
IC50 [2, 10]: 1000 to 10000 nM

CCN1C(=O)CN(CCOC)Cc2cc(OC)c(Nc3ncc(Cl)c(Nc4ccc(N5CCOCC5)cc4OC)n3)cc21 [Example 726, 8-[5-Chloro-4-(2-methoxy-4-morpholin-4-yl-phenylamino)-pyrimidin-2-ylamino]-1-ethyl-7-methoxy-4-(2-methoxy-ethyl)-1,3,4,5-tetrahydro-benzo[e][1,4]diazepin-2-one]
IC50 [1, 7]: > 10000 nM
IC50 [2, 8]: 100 to 1000 nM

CCN([C@@H]1CCCC[C@H]1Nc1nc(Nc2ccc3c(c2)C(C)(C)CCC(=O)N3)ncc1Cl)S(C)(=O)=O [Example 1675, N-{(1R,2R)-2-[5-Chloro-2-(5,5-dimethyl-2-oxo-2,3,4,5-tetrahydro-1H-benzo[b]azepin-7-ylamino)-pyrimidin-4-ylamino]-cyclohexyl}-N-ethyl-methanesulfonamide]
IC50 [1, 9]: 1000 to 10000 nM
IC50 [2, 10]: < 100 nM

COc1cc2c(cc1Nc1ncc(Cl)c(Nc3ccccc3S(=O)(=O)N(C)C)n1)CCN(CC(F)F)CC2 [Example 822, 2-{5-Chloro-2-[3-(2,2-difluoro-ethyl)-8-methoxy-2,3,4,5-tetrahydro-1H-benzo[d]azepin-7-ylamino]-pyrimidin-4-ylamino}-N,N-dimethyl-benzenesulfonamide]
IC50 [1, 7]: > 10000 nM
IC50 [2, 8]: < 100 nM

COCCN1CCc2ccc(Nc3ncc(Cl)c(Nc4c(C)cccc4OCC#N)n3)cc2CC1 [Example 1245, (2-{5-Chloro-2-[3-(2-methoxy-ethyl)-2,3,4,5-tetrahydro-1H-3-benzazepin-7-ylamino]-pyrimidin-4-ylamino}-3-methyl-phenoxy)-acetonitrile]
IC50 [1, 3]: 100 to 1000 nM
IC50 [2, 4]: 100 to 1000 nM

CCN1CCc2cc(Nc3ncc(Cl)c(Nc4ccccc4C(=O)NC)n3)c(OC)c(N)c2CC1 [Example 50, 2-[2-(9-Amino-3-ethyl-8-methoxy-2,3,4,5-tetrahydro-1H-benzo[d]azepin-7-ylamino)-5-chloro-pyrimidin-4-ylamino]-N-methyl-benzamide]
IC50 [1, 5]: > 10000 nM
IC50 [2, 6]: < 100 nM

C#CCNC(=O)c1cccc(F)c1Nc1nc(Nc2ccc3c(c2)N(C(C)C)CCCC3(C)C)ncc1Cl [Example 1627, 2-[5-Chloro-2-(1-isopropyl-5,5-dimethyl-2,3,4,5-tetrahydro-1H-benzo[b]azepin-8-ylamino)-pyrimidin-4-ylamino]-3-fluoro-N-prop-2-ynyl-benzamide]
IC50 [1, 9]: 1000 to 10000 nM
IC50 [2, 10]: 1000 to 10000 nM

COCCN1CCc2ccc(Nc3ncc(Cl)c(Nc4ccccc4C(=O)NCCCN(C)C)n3)cc2CC1 [Example 1401, 2-{5-Chloro-2-[3-(2-methoxy-ethyl)-2,3,4,5-tetrahydro-1H-benzo[d]azepin-7-ylamino]-pyrimidin-4-ylamino}-N-(3-dimethylamino-propyl)-benzamide]
IC50 [1, 3]: 100 to 1000 nM
IC50 [2, 4]: 100 to 1000 nM

COc1cc(N2CCOCC2)ccc1Nc1nc(Nc2ccc3c(c2)N(CCN(C)C)CCCC3(C)C)ncc1Cl [Example 1641, 5-Chloro-N*2*-[1-(2-dimethylamino-ethyl)-5,5-dimethyl-2,3,4,5-tetrahydro-1H-benzo[b]azepin-8-yl]-N*4*-(2-methoxy-4-morpholin-4-yl-phenyl)-pyrimidine-2,4-diamine]
IC50 [1, 9]: 1000 to 10000 nM
IC50 [2, 10]: < 100 nM
